The source of these data is patent US20210137992A1, “HYPOXIA-INDUCIBLE FACTOR-2A AS A TARGET IN PREVENTION/TREATMENT OF PARKINSON'S DISEASE” (QIngdao University, priority 2019, published 2021).

The test system of experiment [1] is primary cultured astrocytes. The experiment is described as follows: Calcein fluorescence ferrous iron influx (transport-in) assay. The conditions noted are these: 1 mM ferrous iron perfusion. In kind it is cell-based, Wistar suckling mice. On the procedure: (§1) The primary-cultured astrocytes were plated at a plating density of 5×10^4/well in a 24-well plate with a polylysine-treated cover slip placed in each well. After the astrocytes were cultured for 48 h, the medium was blotted up, and the cells were rinsed gently with the DMEM/F12 basic medium preheated at 37° C. The cells were then treated in groups with 6 wells in each group, and were continually cultured in a 5% CO2 incubator at 37° C. for 24 h. The medium was blotted up. The cells were rinsed once with HBS preheated at 37° C., added with calcein (0.5 μM), placed in an incubator at 37° C. for 0.5 h for loading, then rinsed with HBS for three times, and then detected.
Calcein-AM was a membrane-permeable non-fluorescent molecule. […] Calcein had high affinity for all of divalent metal ions, and could be combined with various divalent metal ions in the cells and then converted into non-fluorescent substances, which leads to the quenching of the fluorescence. In this experimental system, other divalent metal ions such as Mg^2+ and Ca^2+ were removed, and only a Fe^2+ solution was used for perfusion to ensure that the fluorescence change of intracellular calcein was caused by its binding with Fe^2+. The level of cheatable iron in the cells was estimated by determining the decrease degree of the fluorescence intensity. […]

Experiment [2] relates to HIF-1α. The experiment is described as follows: Western blot of HIF-1α protein expression in primary cultured VM neurons. Format: cell-based, Wistar mice. The conditions noted are these: 10 μM 6-OHDA for 24 h, compared to control. On the procedure:
(§2) In order to detect the activation of HIF-1α and HIF-2α in the VM neurons by 6-OHDA, the cells were divided into groups and treated with drugs. After being treated with 10 μM of 6-OHDA for 24 h, the cells were collected to extract the total protein.
(§3) After drug treatment of the cells, the medium was completely blotted up, the cells were washed with pre-chilled PBS for three times, and 100 μl of the cell lysis buffer: RIPA lysis buffer (strong) was added to each well, and the cells were lysed on ice for 0.5 h.
(§4) The concentration of the extracted protein was detected by the BCA protein quantitative kit. The protein was sub-packaged according to 30 μg per serving, brought to the same volume with 0.01M PBS, then added with a 4× loading buffer and mixed well, subjected to a water batch above 95° C. for 5 min to denature the protein, and cryopreserved in the refrigerator at −80° C.
(§5) The corresponding primary antibodies were diluted with 5% skim milk: HIF-1α was diluted at 1:1000, HIF-2α was diluted at 1:1000, DMT1 was diluted at 1:800, FPN1 was diluted at 1:800, β-actin was diluted at 1:10000, and incubated in the shaker at 4° C. overnight. It was rinsed with the 1×TBST buffer for 3 times, each time for 10 min.
(§6) The intensity of bands was subjected to density analysis with the Vision Works LS image acquisition and analysis software.

The subject of the next experiment is DMT1. The experiment can be described thus: Western blot of DMT1 protein expression in primary cultured astrocytes. In kind it is cell-based, Wistar suckling rats. On the procedure:
(§7) The astrocytes were inoculated into a six-well plate pre-coated with polylysine at a density of 1.5×10^5/ml. In order to detect the activation of HIF-1α and HIF-2α by 6-OHDA and the corresponding protein expression of DMT1 and FPN1, the cells were divided into groups and treated with drugs. After being treated with 10 μM of 6-OHDA for 24 h, the cells were collected to extract the total protein.
(§8) In order to test the influence of inhibiting the activation of HIF-2α on the protein expression of DMT1 and FPN1 in the astrocytes, the cells were pre-treated with 10 μM of the HIF-2α translation inhibitor for 24 h, and then added with 10 μM of 6-OHDA for co-action for 24 h. Then the total protein was extracted.
(§9) In order to test the influence of inhibiting the activation of HIF-1α on the protein expression of DMT1 and FPN1 in the astrocytes, the cells were pre-treated with 10 μM of Bay87-2243 for 48 h, and then added with 10 μM of 6-OHDA for co-action for 24 h. Then the total protein was extracted.
(§10) The activation and inhibition of HIF-1α and HIF-2α by 6-OHDA and the corresponding protein expression of DMT1 and FPN1 were detected by Western blots.
as §3, §4, §5, §6

For experiment [3], the system named is HIF-2α. The experiment is described as follows: Western blot of HIF-2α protein expression in primary cultured VM neurons. Format: cell-based, Wistar mice. To be noted: 10 μM 6-OHDA for 24 h, compared to control. How it is done: as §2, §3, §4, §5, §6
The test system of experiment [4] is HIF-2α. The experiment is described as follows: Western blot of HIF-2α protein expression in primary cultured astrocytes. In kind it is cell-based. How it is done: as §7, §8, §10, §3, §4, §5, §6
The next experiment has as its system FPN1. The experiment is described as follows: Western blot of FPN1 protein expression in primary cultured astrocytes. Format: cell-based, Wistar suckling rats. How it is done:
as §7, §8, §9, §10, §3, §4, §5, §6

Experiment [5] relates to HIF-1α. The experiment is described as follows: Western blot of HIF-1α protein expression in primary cultured astrocytes. Format: cell-based, Wistar suckling rats. How it is done:
as §7, §9, §10, §3, §4, §5, §6

For experiment [6], the system named is primary cultured astrocytes. The experiment can be described thus: Calcein fluorescence iron efflux (transport-out) assay with DFO perfusion. Format: cell-based, Wistar suckling rats. To be noted: 1 mM DFO perfusion. How it is done:
as §1
Calcein-AM was a membrane-permeable non-fluorescent molecule. […] Calcein had high affinity for all of divalent metal ions, and could be combined with various divalent metal ions in the cells and then converted into non-fluorescent substances, which leads to the quenching of the fluorescence. […] The level of cheatable iron in the cells was estimated by determining the decrease degree of the fluorescence intensity. The fluorescence intensity of calcein was inversely proportional to the content of free iron in the cells. When the level of iron in the cells was increased, the free iron combined with calcein, the fluorescence was quenched, and thus the fluorescence intensity was decreased, otherwise it was increased. […]

Where [7] appears, read: astrocytes, 10 μM 6-OHDA for 24 h, compared with control group.
Setting [8] is: primary cultured astrocytes, 10 μM 6-OHDA for 24 h, compared with control.
The mark [9] stands for this setting: astrocytes treated with 10 μM BAY 87-2243 alone, compared with control group.
Setting [10] is: astrocytes, 10 μM BAY 87-2243 pretreatment 48 h then 10 μM 6-OHDA 24 h, compared to 6-OHDA group.
Setting [11] is: pretreatment with 10 μM HIF-2α inhibitor for 24 h, 10 μM 6-OHDA.
Where [12] appears, read: astrocytes treated with 10 μM HIF-2α inhibitor alone, compared to control group.
The mark [13] stands for this setting: astrocytes, 10 μM HIF-2α inhibitor pretreatment 24 h then 10 μM 6-OHDA 24 h, compared with 6-OHDA group.

Consider `NCCc1cc(O)c(O)cc1O` [6-OHDA, 6-hydroxydopamine], for which the “ferrous iron influx (calcein fluorescence quenching)” value in experiment [1] (cells treated with 10 μM 6-OHDA, compared with controls) is listed as “more rapid fluorescence quenching”. Further, the “protein level of HIF-1α” value in the experiment on HIF-1α [2] was “remained unchanged”. The “expression of DMT1” value in the experiment with DMT1 (setting [7]) is “increased”. For the same compound, in the experiment on HIF-2α [3], the “protein level of HIF-2α” value is recorded as “remained unchanged”. For the same compound, the “expression of HIF-2α” value in the experiment on HIF-2α [4] (setting [8]) is “increased”. The “expression of FPN1” value with FPN1 (setting [7]) was “increased”. In addition, in the experiment with HIF-1α [5] (setting [8]), the “expression of HIF-1α” value is listed as “increased”. The “iron efflux (calcein fluorescence intensity)” value in experiment [6] (10 μM 6-OHDA-treated group) was “marked increase in fluorescence intensity”.
Consider `Cc1cc(-c2nc(-c3ccc(OC(F)(F)F)cc3)no2)nn1Cc1ccnc(N2CCN(C3CC3)CC2)c1` [BAY 87-2243], for which the results for the “expression of DMT1” value in the experiment on DMT1 (setting [9]) and in the experiment with DMT1 (setting [10]) were “remained unchanged” and “did not change”, respectively. The “expression of FPN1” value in the experiment on FPN1 (setting [9]) is “remained unchanged”; in the experiment with FPN1 (setting [10]), “did not change”. In addition, the “expression of HIF-1α” value with HIF-1α [5] (setting [9]) is given as “decreased”; with HIF-1α [5] (astrocytes, 10 μM BAY 87-2243 pretreatment 48 h then co-treatment with 10 μM 6-OHDA 24 h, compared with 6-OHDA group) it was “decreased”.
On to `COC(=O)c1sccc1N/N=C(\C#N)S(C)(=O)=O` [HIF-2α inhibitor], for which the “effect on 6-OHDA-increased ferrous iron influx (calcein fluorescence)” value in experiment [1] (setting [11]) is “fully blocked”. The “expression of DMT1” value in the experiment on DMT1 (setting [12]) and in the experiment with DMT1 (setting [13]) was “decreased” each time. The “expression of HIF-2α” value is recorded as “decreased” with HIF-2α [4] (astrocytes treated with 10 μM HIF-2α inhibitor alone, compared with control group) and “decreased” in the experiment on HIF-2α [4] (astrocytes, 10 μM HIF-2α inhibitor pretreatment 24 h then co-treatment with 10 μM 6-OHDA 24 h, compared with 6-OHDA group). The “expression of FPN1” value with FPN1 (setting [12]) and in the experiment with FPN1 (setting [13]) was “decreased” each time. Further, the “effect on 6-OHDA-caused ferrous iron efflux (calcein fluorescence)” value in experiment [6] (setting [11]) is listed as “fully blocked”.
